From ChEMBL document CHEMBL1201862, “PubChem BioAssay data set” (2004)
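96-well plates; 48 h exposure; 5 concentrations. Endpoints by linear interpolation between flanking doses. Not reached: highest tested concentration assigned. GI50: concentration for 50% inhibition of growth.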 The source made the active and inactive calls. Cut-off read from the data, not from the text of the source: active = GI50 up to about 1.1 µM and inactive = higher.

Key:
Assay in all cases: NCI tumour cell line growth inhibition, 48 h
786-0 = tested on: 786-0
A498 = tested on: A498
A549 = tested on: A549
ACHN = tested on: ACHN
CAKI-1 = tested on: CAKI-1
CCRF-CEM = tested on: CCRF-CEM
COLO 205 = tested on: COLO 205
DLD-1 = tested on: DLD-1
DMS-273 = tested on: DMS-273
EKVX = tested on: EKVX
HCC 2998 = tested on: HCC 2998
HCT-15 = tested on: HCT-15
HOP-18 = tested on: HOP-18
HOP-62 = tested on: HOP-62
HOP-92 = tested on: HOP-92
HT-29 = tested on: HT-29
IGROV-1 = tested on: IGROV-1
K562 = tested on: K562
KM-20L2 = tested on: KM-20L2
KM12 = tested on: KM12
LOX IMVI = tested on: LOX IMVI
LXFL 529 = tested on: LXFL 529
M14 = tested on: M14
MOLT-4 = tested on: MOLT-4
Malme-3M = tested on: Malme-3M
NCI-H226 = tested on: NCI-H226
NCI-H23 = tested on: NCI-H23
NCI-H460 = tested on: NCI-H460
NCI-H522 = tested on: NCI-H522
OVCAR-3 = tested on: OVCAR-3
OVCAR-4 = tested on: OVCAR-4
OVCAR-5 = tested on: OVCAR-5
OVCAR-8 = tested on: OVCAR-8
RXF 393 = tested on: RXF 393
SF-268 = tested on: SF-268
SF-295 = tested on: SF-295
SF-539 = tested on: SF-539
SK-MEL-28 = tested on: SK-MEL-28
SK-MEL-2 = tested on: SK-MEL-2
SK-MEL-5 = tested on: SK-MEL-5
SK-OV-3 = tested on: SK-OV-3
SN12C = tested on: SN12C
SNB-75 = tested on: SNB-75
SNB-78 = tested on: SNB-78
SR = tested on: SR
SW-620 = tested on: SW-620
TK-10 = tested on: TK-10
U-251 = tested on: U-251
UACC-257 = tested on: UACC-257
UACC-62 = tested on: UACC-62
UO-31 = tested on: UO-31
DMS-114 = tested on: DMS-114
HCT-116 = tested on: HCT-116
M19-MEL = tested on: M19-MEL
RPMI-8226 = tested on: RPMI-8226
DU-145 = tested on: DU-145
HL-60 = tested on: HL-60
Hs-578T = tested on: Hs-578T
MCF7 = tested on: MCF7
MDA-MB-231 = tested on: MDA-MB-231
MDA-MB-435 = tested on: MDA-MB-435
MDA-N = tested on: MDA-N
NCI/ADR-RES = tested on: NCI/ADR-RES
PC-3 = tested on: PC-3
SNB-19 = tested on: SNB-19
T47D = tested on: T47D
XF498 = tested on: XF498

Measured: GI50

COc1cc(Nc2nc3ccc(C(F)(F)F)cc3nc2-c2ccccc2)cc(OC)c1OC
inactive: 786-0 31 µM | A498 24.5 µM | A549 23.8 µM | ACHN 9.1 µM | CAKI-1 18.8 µM | CCRF-CEM 8.11 µM | COLO 205 > 10 µM | DLD-1 6.73 µM | DMS-273 12 µM | EKVX 18.2 µM | HCC 2998 4.23 µM | HOP-62 > 100 µM | HT-29 1.98 µM | IGROV-1 > 100 µM | K562 5.56 µM | KM-20L2 5.85 µM | KM12 9.38 µM | LOX IMVI 4.32 µM | LXFL 529 23.1 µM | M14 9.93 µM | MOLT-4 8.41 µM | Malme-3M 37 µM | NCI-H226 7.66 µM | NCI-H23 67.5 µM | NCI-H460 4.82 µM | NCI-H522 27.8 µM | OVCAR-3 40.6 µM | OVCAR-4 51.4 µM | OVCAR-5 20.7 µM | OVCAR-8 28.2 µM | RXF 393 30 µM | SF-268 5.75 µM | SF-295 3.05 µM | SF-539 25.2 µM | SK-MEL-28 40.8 µM | SK-MEL-2 21.9 µM | SK-MEL-5 16.4 µM | SK-OV-3 > 100 µM | SN12C 18.7 µM | SNB-75 > 100 µM | SNB-78 > 100 µM | SR 8.3 µM | SW-620 85.3 µM | TK-10 > 100 µM | U-251 32.7 µM | UACC-257 16.1 µM | UACC-62 36.2 µM | UO-31 10 µM
active: HOP-18 < 0.01 µM | HOP-92 0.991 µM
4.41 µM: HCT-15

COC12OCCN(C)C1=CC(=O)C1(C)N=NCC12 (stereo not given)
inactive: 786-0 > 100 µM | A498 > 100 µM | A549 > 100 µM | ACHN > 100 µM | CAKI-1 > 100 µM | CCRF-CEM > 100 µM | COLO 205 > 100 µM | DLD-1 > 100 µM | DMS-114 > 100 µM | DMS-273 > 100 µM | EKVX > 100 µM | HCC 2998 > 100 µM | HCT-116 > 100 µM | HOP-18 > 100 µM | HOP-92 > 100 µM | HT-29 > 100 µM | IGROV-1 > 100 µM | K562 > 100 µM | KM12 > 100 µM | LOX IMVI > 100 µM | LXFL 529 > 100 µM | M14 > 100 µM | M19-MEL > 100 µM | MOLT-4 > 100 µM | Malme-3M > 100 µM | NCI-H226 > 100 µM | NCI-H23 > 100 µM | NCI-H460 > 100 µM | NCI-H522 > 100 µM | OVCAR-3 > 100 µM | OVCAR-8 > 100 µM | RPMI-8226 > 100 µM | RXF 393 > 100 µM | SF-295 > 100 µM | SF-539 > 100 µM | SK-MEL-28 > 100 µM | SK-MEL-5 > 100 µM | SK-OV-3 > 100 µM | SN12C > 100 µM | SNB-75 > 100 µM | SNB-78 > 100 µM | SW-620 > 100 µM | TK-10 > 100 µM | U-251 > 100 µM | UACC-257 > 100 µM | UACC-62 > 100 µM | UO-31 > 100 µM
> 100 µM: HCT-15

O=C(CCC1CCCCN1)Nc1ccc2c(c1)C(=O)c1ccc(NC(=O)CCN3CCCCC3)cc1C2=O (stereo not given)
1.58 µM: HCT-15
inactive: 786-0 9.75 µM | A498 4.14 µM | A549 5.19 µM | ACHN 1.45 µM | CAKI-1 2.11 µM | CCRF-CEM 8.73 µM | COLO 205 1.35 µM | DLD-1 1.61 µM | DMS-114 1.59 µM | DMS-273 2.54 µM | DU-145 > 10 µM | EKVX > 10 µM | HCC 2998 > 10 µM | HCT-116 2.03 µM | HL-60 5.77 µM | HOP-18 2.79 µM | HOP-62 9.29 µM | HOP-92 2 µM | HT-29 2.52 µM | Hs-578T > 10 µM | IGROV-1 6.82 µM | K562 1.83 µM | KM-20L2 3.21 µM | KM12 2.33 µM | LOX IMVI 1.21 µM | LXFL 529 1.32 µM | M14 1.32 µM | M19-MEL 2.04 µM | MCF7 > 10 µM | MDA-MB-231 > 10 µM | MDA-MB-435 > 10 µM | MDA-N > 10 µM | MOLT-4 1.95 µM | Malme-3M 1.43 µM | NCI-H226 4.66 µM | NCI-H23 2.21 µM | NCI-H460 4.17 µM | NCI-H522 1.38 µM | NCI/ADR-RES > 10 µM | OVCAR-3 2.37 µM | OVCAR-4 1.65 µM | OVCAR-5 2.34 µM | OVCAR-8 2.37 µM | PC-3 > 10 µM | RPMI-8226 7.55 µM | SF-268 3.3 µM | SF-295 3.56 µM | SF-539 2.97 µM | SK-MEL-28 1.7 µM | SK-MEL-2 1.37 µM | SK-MEL-5 1.4 µM | SK-OV-3 5.3 µM | SN12C 1.91 µM | SNB-19 7.19 µM | SNB-75 2.62 µM | SNB-78 4.56 µM | SW-620 > 10 µM | T47D > 10 µM | TK-10 1.22 µM | U-251 8.13 µM | UACC-257 1.44 µM | UACC-62 1.22 µM | UO-31 1.21 µM
active: RXF 393 0.776 µM | SR 0.493 µM

N#C/C(=C/c1ccc([N+](=O)[O-])o1)c1ccccc1
inactive: 786-0 > 100 µM | A549 > 100 µM | ACHN > 100 µM | CAKI-1 > 100 µM | CCRF-CEM > 100 µM | COLO 205 > 100 µM | DLD-1 > 100 µM | DMS-114 > 100 µM | DMS-273 > 100 µM | EKVX > 100 µM | HCC 2998 > 100 µM | HCT-116 > 100 µM | HL-60 > 100 µM | HOP-18 > 100 µM | HOP-62 > 100 µM | HOP-92 > 100 µM | HT-29 > 100 µM | K562 > 100 µM | KM-20L2 > 100 µM | KM12 > 100 µM | LOX IMVI > 100 µM | LXFL 529 > 100 µM | M14 > 100 µM | M19-MEL > 100 µM | MOLT-4 > 100 µM | Malme-3M > 100 µM | NCI-H226 > 100 µM | NCI-H23 > 100 µM | NCI-H460 > 100 µM | NCI-H522 > 100 µM | OVCAR-3 > 100 µM | OVCAR-4 > 100 µM | OVCAR-5 > 100 µM | OVCAR-8 > 100 µM | RPMI-8226 > 100 µM | RXF 393 > 100 µM | SF-268 > 100 µM | SF-295 > 100 µM | SF-539 > 100 µM | SK-MEL-28 > 100 µM | SK-MEL-2 > 100 µM | SK-MEL-5 > 100 µM | SK-OV-3 > 100 µM | SN12C > 100 µM | SNB-19 > 100 µM | SNB-75 97.7 µM | SNB-78 > 100 µM | SR > 100 µM | SW-620 > 100 µM | TK-10 > 100 µM | U-251 > 100 µM | UACC-257 > 100 µM | UACC-62 > 100 µM | UO-31 > 100 µM

CN1C2C=C(c3ccccc3)CC1CC2 (stereo not given)
inactive: 786-0 > 100 µM | A498 > 100 µM | A549 > 100 µM | ACHN > 100 µM | CCRF-CEM > 100 µM | COLO 205 > 100 µM | DLD-1 > 100 µM | EKVX > 100 µM | HCC 2998 > 100 µM | HCT-116 > 100 µM | HL-60 > 100 µM | HOP-18 > 100 µM | HOP-92 > 100 µM | HT-29 > 100 µM | IGROV-1 > 100 µM | K562 > 100 µM | KM-20L2 > 100 µM | KM12 > 100 µM | LOX IMVI > 100 µM | LXFL 529 > 100 µM | M14 > 100 µM | M19-MEL > 100 µM | MOLT-4 > 100 µM | Malme-3M > 100 µM | NCI-H23 > 100 µM | NCI-H460 > 100 µM | NCI-H522 > 100 µM | OVCAR-3 > 100 µM | OVCAR-5 > 100 µM | OVCAR-8 > 100 µM | RPMI-8226 > 100 µM | RXF 393 > 100 µM | SF-268 > 100 µM | SF-295 > 100 µM | SF-539 > 100 µM | SK-MEL-28 > 100 µM | SK-MEL-2 > 100 µM | SK-MEL-5 > 100 µM | SK-OV-3 > 100 µM | SN12C > 100 µM | SNB-19 > 100 µM | SNB-75 56.1 µM | SR > 100 µM | SW-620 > 100 µM | TK-10 > 100 µM | U-251 > 100 µM | UACC-257 > 100 µM | UACC-62 > 100 µM | UO-31 > 100 µM | XF498 > 100 µM
> 100 µM: HCT-15
